From publication PMC3907537, “Evaluation of the Endothelin Receptor Antagonists Ambrisentan, Bosentan, Macitentan, and Sitaxsentan as Hepatobiliary Transporter Inhibitors and Substrates in Sandwich-Cultured Human Hepatocytes” (PLoS ONE, 2014)
Like-named read-outs stand apart in the source and are kept apart here.

How the values were obtained:
OATP1B3 = target: T1, OATP1B3 (Homo sapiens, UniProt Q9NPD5); assay: OATP1B3 inhibition, Fluo 3 uptake in transfected CHO cells; assay type: cell-based
T1 construct: host or cells: CHO
T1 sequence (Q9NPD5 1-702): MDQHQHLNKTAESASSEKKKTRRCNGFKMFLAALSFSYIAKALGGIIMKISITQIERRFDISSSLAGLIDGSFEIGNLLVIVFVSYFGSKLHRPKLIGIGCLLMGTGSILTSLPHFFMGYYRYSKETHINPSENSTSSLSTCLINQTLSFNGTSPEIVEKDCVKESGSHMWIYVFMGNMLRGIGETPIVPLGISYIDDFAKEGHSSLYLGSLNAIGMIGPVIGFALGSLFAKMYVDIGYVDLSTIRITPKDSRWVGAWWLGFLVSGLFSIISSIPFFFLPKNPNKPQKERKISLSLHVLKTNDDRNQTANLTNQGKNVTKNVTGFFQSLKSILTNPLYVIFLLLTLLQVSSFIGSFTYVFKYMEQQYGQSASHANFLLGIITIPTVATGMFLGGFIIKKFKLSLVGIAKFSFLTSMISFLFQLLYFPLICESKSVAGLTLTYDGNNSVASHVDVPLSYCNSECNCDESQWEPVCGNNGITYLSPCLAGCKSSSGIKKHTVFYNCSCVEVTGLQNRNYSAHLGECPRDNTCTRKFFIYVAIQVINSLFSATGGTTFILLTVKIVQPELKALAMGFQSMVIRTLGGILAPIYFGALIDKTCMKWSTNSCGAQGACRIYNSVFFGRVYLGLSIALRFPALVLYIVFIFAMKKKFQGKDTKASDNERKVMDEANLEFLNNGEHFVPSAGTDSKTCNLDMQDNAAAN
From the text: (§1) Chinese Hamster Ovary (CHO) cells were obtained from Professor B. Stieger’s laboratory at University of Zurich, Zurich, Switzerland. Madin-Darby Canine Kidney strain II (MDCKII) cells were obtained from Nederlands Kanker Instituut (NKI), Amsterdam, Netherlands. NTCP-CHO cells, BSEP and MRP2 membrane vesicles were developed and validated at Solvo Biotechnology, Budaors, Hungary.
(§2) CHO cells, either wild type or transfected with the genes encoding human NTCP, OATP1B1 and OATP1B3, were maintained in Dulbecco’s Modification of Eagle’s Medium (DMEM) containing 1,000 mg/L D-glucose, L-glutamine, 25 mM HEPES buffer, 110 mg/L sodium pyruvate, 1% Penicillin/Streptomycin, 10% fetal bovine serum (FBS), 0.05 mg/mL L proline and 0.5 mg/mL of geneticin G-418. Cells were maintained in incubators set at 37°C, 90% humidity and 5% CO2. OATP1B1 and OATP1B3 over-expressing cells were seeded in BioCoat Poly-D-Lysine coated 96-well black cell culture plates with clear bottoms at a density of 1×10^5 cells/well. Sodium butyrate (10 mM) was added to the OATP1B1 and OATP1B3 cells once seeded to increase the protein expression level and the cells were grown to confluence overnight. The assay buffer contained 142 mM NaCl, 5 mM KCl, 1 mM KH2PO4, 1.2 mM MgSO4, 1.5 mM CaCl2, 5 mM Glucose and 12.5 mM HEPES (pH 7.4). After removal of the media and before adding test compounds, the cells were washed twice with 37°C assay buffer followed by a 0.5 h pre-incubation with assay buffer. […] Wells were analyzed for Fluo 3 fluorescence at an excitation of 485 nm and emission of 530 nm. Inhibition of NTCP was studied using similar conditions to those described for OATP1B1 and OATP1B3 except that inhibition of the uptake ^3H taurocholate into transfected CHO cells was monitored using radioactive scintillation counting.
(§3) All assays were performed in duplicate. […] IC50 values were calculated using non-linear fitting of % inhibition versus concentration to a sigmoidal curve with a variable Hill Coefficient using GraphPad Prism 5 (GraphPad Software Inc., San Diego, CA).

OATP1B1 = target: T2, OATP1B1 (Homo sapiens, UniProt Q9Y6L6); assay: OATP1B1 inhibition, Fluo 3 uptake in transfected CHO cells; assay type: cell-based
T2 construct: host or cells: CHO
T2 sequence (Q9Y6L6 1-691): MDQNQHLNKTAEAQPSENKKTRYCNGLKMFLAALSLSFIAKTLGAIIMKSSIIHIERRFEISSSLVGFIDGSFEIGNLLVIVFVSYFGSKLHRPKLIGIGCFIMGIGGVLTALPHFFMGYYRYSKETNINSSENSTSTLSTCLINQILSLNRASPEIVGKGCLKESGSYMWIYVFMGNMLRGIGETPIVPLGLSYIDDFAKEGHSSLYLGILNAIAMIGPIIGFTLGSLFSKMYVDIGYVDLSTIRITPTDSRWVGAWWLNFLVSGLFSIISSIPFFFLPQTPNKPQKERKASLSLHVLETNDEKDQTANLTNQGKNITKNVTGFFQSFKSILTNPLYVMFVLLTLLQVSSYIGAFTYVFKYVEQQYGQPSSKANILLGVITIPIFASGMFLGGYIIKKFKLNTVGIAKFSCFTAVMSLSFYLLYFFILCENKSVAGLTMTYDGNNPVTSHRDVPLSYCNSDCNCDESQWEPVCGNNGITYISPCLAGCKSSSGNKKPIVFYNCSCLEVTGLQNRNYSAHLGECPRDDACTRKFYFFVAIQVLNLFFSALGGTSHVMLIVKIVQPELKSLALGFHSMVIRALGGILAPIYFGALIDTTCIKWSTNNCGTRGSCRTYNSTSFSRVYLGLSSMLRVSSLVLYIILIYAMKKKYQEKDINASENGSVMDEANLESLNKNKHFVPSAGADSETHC
From the text: as §1, §2, §3

[1] = CHO cells, Fluo 3, mean ± SD of 3 independent studies in duplicate, tested 0.14–100 µM, read-out: OATP1B3 IC50
[2] = CHO cells, Fluo 3, mean ± SD of 3 independent studies in duplicate, tested 0.14–100 µM, read-out: OATP1B1 IC50

SMILES: COc1ccccc1Oc1c(NS(=O)(=O)c2ccc(C(C)(C)C)cc2)nc(-c2ncccn2)nc1OCCO [bosentan]
- IC50 (OATP1B3; [1]): 5.2 ± 2.1 µM
- IC50 (OATP1B1; [2]): 5 ± 2 µM

SMILES: COC(c1ccccc1)(c1ccccc1)[C@H](Oc1nc(C)cc(C)n1)C(=O)O [ambrisentan]
- IC50 (OATP1B3): 44.6 ± 23.8 µM
- IC50 (OATP1B1): 47 ± 21.3 µM

SMILES: CCCNS(=O)(=O)Nc1ncnc(OCCOc2ncc(Br)cn2)c1-c1ccc(Br)cc1 [macitentan]
- IC50 (OATP1B3; [1]): 2.1 ± 0.3 µM
- IC50 (OATP1B1; [2]): 2 ± 0.3 µM
